Common to all, as to type: in vivo
Assay [1] concerns Cabbage Looper (Trichoplusia ni, TRIPNI). Kind of assay: Bioassay on Cabbage Looper (CL), 128-well diet tray assay. Particulars: Trichoplusia ni. The method, boiled down:
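Percent mortality, averaged across eight replicate wells, was scored after five to seven days at 25° C. under a 14:10 light-dark cycle. Each well held one to five second instar larvae on artificial diet treated at 50 μg/cm^2 with compound from 90:10 acetone-water, allowed to dry before infestation.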

For assay [2], the system named is Beet Armyworm (Spodoptera exigua, LAPHEG). Nature of the assay: Bioassay on Beet Armyworm (BAW), 128-well diet tray assay. The method, boiled down: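 Percent mortality, averaged across eight replicate wells, was scored after five to seven days at 25° C. under a 14:10 light-dark cycle. Each well's diet carried 50 μg/cm^2 of the dried test molecule and held one to five second instar larvae.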

The test system of assay [3] is Yellow Fever Mosquito (Aedes aegypti, AEDSAE). Kind of assay: Bioassay on Yellow Fever Mosquito (YFM), 96-well plate larval assay. Conditions: for YFM (Biological Results, rating): Species YFM (Yellow Fever Mosquito); for YFM rating: Yellow Fever Mosquito, 96-well plate larval assay. The method, boiled down:
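Each well was scored for mortality after 3 days at room temperature under a non-evaporative lid. Test molecules came from DMSO masters (4000 ppm stock) diluted with water/acetone 90:10 and dispensed into six replicate plates, which were then infested with roughly 1-day-old larvae in liver-powder water.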

Setting [4] is: Species CL (Cabbage Looper), read-out: CL (Biological Results, rating).
[5] abbreviates: Species BAW (Beet Armyworm), read-out: BAW (Biological Results, rating).
Setting [6] is: Cabbage Looper, 128-well diet tray assay, read-out: CL rating.
[7] abbreviates: Beet Armyworm, 128-well diet tray assay, read-out: BAW rating.

Like-named read-outs stand apart in the source and are kept apart here.

`O=C(Nc1ccc(F)cc1)c1cc(NC(=O)[C@@H]2[C@@H](c3cc(Cl)cc(Cl)c3)C2(Cl)Cl)ccc1Cl` [F166, 2-Chloro-5-((1S,3S)-2,2-dichloro-3-(3,5-dichlorophenyl)cyclopropane-1-carboxamido)-N-(4-fluorophenyl)benzamide]: the pest or weed control at 50 µg/cm2 in assay [1] (setting [4]) and in assay [2] (setting [5]) was 50 to 100% in each case. Moreover, the “YFM (Biological Results, rating)” value in assay [3] is given as “B (More than 0-Less than 80)”.
Take `O=C(Nc1ccc(F)cc1F)c1cc(NC(=O)[C@H]2[C@H](c3ccc(F)c(C(F)F)c3)C2(Cl)Cl)ccc1Cl` (relative stereo) [F561, 2-Chloro-5-(trans-2,2-dichloro-3-(3-(difluoromethyl)-4-fluorophenyl)cyclopropane-1-carboxamido)-N-(2,4-difluorophenyl)benzamide]: the pest or weed control at 50 µg/cm2 in assay [1] (setting [6]) and in assay [2] (setting [7]) was 50 to 100% in each case. In assay [3], the YFM rating entry is “A (80-100)”.
`Cc1ccc(NC(=O)c2cc(NC(=O)[C@H]3[C@H](c4cc(Cl)cc(Cl)c4)C3(Cl)Cl)ccc2Cl)c([N+](=O)[O-])c1` (relative stereo) [F231, 2-Chloro-5-(trans-2,2-dichloro-3-(3,5-dichlorophenyl)cyclopropane-1-carboxamido)-N-(4-methyl-2-nitrophenyl)benzamide]: the pest or weed control at 50 µg/cm2 in assay [1] (setting [4]) and in assay [2] (setting [5]) was 50 to 100% each time. In addition, the “YFM (Biological Results, rating)” value in assay [3] is on record as “A (80-100)”.
With `Cc1cc(NC(=O)c2cc(NC(=O)[C@H]3[C@H](c4cc(Cl)cc(Cl)c4)C3(Cl)Cl)ccc2Cl)ccc1F` (relative stereo) [PF44, trans-2-Chloro-5-(2,2-dichloro-3-(3,5-dichlorophenyl)cyclopropane-1-carboxamido)-N-(4-fluoro-3-methylphenyl)benzamide], the pest or weed control at 50 µg/cm2 in assay [1] (setting [6]) and in assay [2] (setting [7]) was 50 to 100% each time. In addition, in assay [3], the YFM rating entry is reported as “A (80-100)”.
As to `CN(C(=O)c1cc(NC(=O)[C@H]2[C@H](c3cc(Br)cc(Br)c3)C2(Cl)Cl)ccc1Cl)c1ccc(F)cc1` (relative stereo) [F91, trans-2-Chloro-5-(2,2-dichloro-3-(3,5-dibromophenyl)cyclopropane-1-carboxamido)-N-(4-fluorophenyl)-N-methylbenzamide], the pest or weed control at 50 µg/cm2 in assay [1] (setting [4]) and in assay [2] (setting [5]) was 50 to 100% in each case. The “YFM (Biological Results, rating)” value in assay [3] is “B (More than 0-Less than 80)”.
Turning to `Cc1cc(N2C(=O)C=CC2=O)ccc1NC(=O)c1cc(NC(=O)[C@H]2[C@H](c3cc(Cl)cc(Cl)c3)C2(Cl)Cl)ccc1Cl` (relative stereo) [F480, 2-chloro-5-(trans-2,2-dichloro-3-(3,5-dichlorophenyl)cyclopropane-1-carboxamido)-N-(4-(2,5-dioxo-2,5-dihydro-1H-pyrrol-1-yl)-2-methylphenyl)benzamide], the pest or weed control at 50 µg/cm2 in assay [1] (setting [6]) and in assay [2] (setting [7]) was 50 to 100% in each case. Besides, in assay [3], the YFM rating result is reported as “A (80-100)”.
As to `Cn1nc(NC(=O)c2cc(NC(=O)[C@H]3[C@H](c4cc(Cl)cc(Cl)c4)C3(Cl)Cl)ccc2Cl)c2c(Cl)cccc21` (relative stereo) [F463, 2-Chloro-N-(4-chloro-1-methyl-1H-indazol-3-yl)-5-(trans)-(2,2-dichloro-3-(3,5-dichlorophenyl)cyclopropane-1-carboxamido)benzamide], the pest or weed control at 50 µg/cm2 in assay [1] (setting [6]) and in assay [2] (setting [7]) was 50 to 100% in each case. For the same compound, the YFM rating entry in assay [3] was “A (80-100)”.
Turning to `Nc1cncc(NC(=O)c2cc(NC(=O)[C@H]3[C@H](c4cc(Cl)cc(Cl)c4)C3(Cl)Cl)ccc2Cl)c1` [F362, N-(5-aminopyridin-3-yl)-2-chloro-5-((1R,3R)-2,2-dichloro-3-(3,5-dichlorophenyl)cyclopropane-1-carboxamido)benzamide], the pest or weed control at 50 µg/cm2 in assay [1] (setting [4]) and in assay [2] (setting [5]) was 50 to 100% in each case. The “YFM (Biological Results, rating)” value in assay [3] is on record as “A (80-100)”.
As for `CNc1ccc(NC(=O)c2cc(NC(=O)[C@H]3[C@H](c4ccc(Br)c(Cl)c4)C3(Cl)Cl)ccc2Cl)c(C)c1` (relative stereo) [F323, 5-(trans-3-(4-bromo-3-chlorophenyl)-2,2-dichlorocyclopropane-1-carboxamido)-2-chloro-N-(2-methyl-4-(methylamino)phenyl)benzamide], the pest or weed control at 50 µg/cm2 in assay [1] (setting [4]) and in assay [2] (setting [5]) was 50 to 100% each time. For the same compound, the “YFM (Biological Results, rating)” value in assay [3] is recorded as “A (80-100)”.
`CNc1cc(NC(=O)c2cc(NC(=O)[C@H]3[C@H](c4cc(Cl)cc(Cl)c4)C3(Cl)Cl)ccc2Cl)ccc1OC` (relative stereo) [F200, trans-2-Chloro-5-(2,2-dichloro-3-(3,5-dichlorophenyl)cyclopropane-1-carboxamido)-N-(4-methoxy-3-(methylamino)phenyl)benzamide]: the pest or weed control at 50 µg/cm2 in assay [1] (setting [4]) and in assay [2] (setting [5]) was 50 to 100% each time. Moreover, the “YFM (Biological Results, rating)” value in assay [3] is on record as “B (More than 0-Less than 80)”.
For the compound `O=C(Nc1ccc(F)cc1F)c1cc(NC(=O)[C@H]2[C@H](c3ccc(Br)c(Br)c3)C2(Cl)Cl)ccc1Cl` (relative stereo) [F532, 2-Chloro-5-(trans)-(2,2-dichloro-3-(3,4-dibromophenyl)cyclopropane-1-carboxamido)-N-(2,4-difluorophenyl)benzamide], the pest or weed control at 50 µg/cm2 in assay [1] (setting [6]) and in assay [2] (setting [7]) was 50 to 100% each time. Besides, in assay [3], the YFM rating result is “A (80-100)”.
Regarding `Nc1cc(F)ccc1NC(=O)c1cc(NC(=O)[C@H]2[C@H](c3ccc(F)c(Cl)c3)C2(Cl)Cl)ccc1Cl` [F578, N-(2-Amino-4-fluorophenyl)-2-chloro-5-((1R,3R)-2,2-dichloro-3-(3-chloro-4-fluorophenyl)cyclopropane-1-carboxamido)benzamide], the pest or weed control at 50 µg/cm2 in assay [1] (setting [6]) and in assay [2] (setting [7]) was 50 to 100% each time. Further, the YFM rating entry in assay [3] is “A (80-100)”.
With `O=C(Nc1ccc(F)cc1)c1cc(NC(=O)[C@H]2[C@H](c3ccc(C(F)(F)F)cc3)C2(Cl)Cl)ccc1Cl` (relative stereo) [F81, trans-2-Chloro-5-(2,2-dichloro-3-(4-(trifluoromethyl)phenyl)cyclopropane-1-carboxamido)-N-(4-fluorophenyl)benzamide], the pest or weed control at 50 µg/cm2 in assay [1] (setting [4]) and in assay [2] (setting [5]) was 50 to 100% throughout. Also, in assay [3], the “YFM (Biological Results, rating)” value is “A (80-100)”.
`O=C(Nc1ccc(Cl)nc1)c1cc(NC(=O)[C@H]2[C@H](c3cc(Cl)cc(Cl)c3)C2(Cl)Cl)ccc1Cl` (relative stereo) [F32, trans-2-Chloro-N-(6-chloropyridin-3-yl)-5-(2,2-dichloro-3-(3,5-dichlorophenyl)cyclopropane-1-carboxamido)benzamide]: the pest or weed control at 50 µg/cm2 in assay [1] (setting [4]) and in assay [2] (setting [5]) was 50 to 100% in each case. Besides, the “YFM (Biological Results, rating)” value in assay [3] is given as “A (80-100)”.
For the compound `Nc1ccc(NC(=O)c2cc(NC(=O)[C@H]3[C@H](c4cc(Cl)cc(Cl)c4)C3(Cl)Cl)ccc2Cl)cc1F` (relative stereo) [F174, trans-N-(4-Amino-3-fluorophenyl)-2-chloro-5-(2,2-dichloro-3-(3,5-dichlorophenyl)cyclopropane-1-carboxamido)benzamide], the pest or weed control at 50 µg/cm2 in assay [1] (setting [4]) and in assay [2] (setting [5]) was 50 to 100% each time. For the same compound, in assay [3], the “YFM (Biological Results, rating)” value is on record as “A (80-100)”.
For the compound `Nc1cc(NC(=O)c2cc(NC(=O)[C@H]3[C@H](c4cc(Cl)c(Cl)c(Cl)c4)C3(Cl)Cl)ccc2Cl)c(F)cc1F` [F402, N-(5-Amino-2,4-difluorophenyl)-2-chloro-5-((1R,3R)-2,2-dichloro-3-(3,4,5-trichlorophenyl)cyclopropane-1-carboxamido)benzamide], the pest or weed control at 50 µg/cm2 in assay [1] (setting [6]) and in assay [2] (setting [7]) was 50 to 100% in each case. Further, the YFM rating result in assay [3] is reported as “A (80-100)”.
On to `CNc1ccc(NC(=O)c2cc(NC(=O)[C@H]3[C@H](c4cc(Cl)cc(Cl)c4)C3(Cl)Cl)ccc2Cl)c(C)c1` (relative stereo) [F196, trans-2-Chloro-5-(2,2-dichloro-3-(3,5-dichlorophenyl)cyclopropane-1-carboxamido)-N-(2-methyl-4-(methylamino)phenyl)benzamide], for which the pest or weed control at 50 µg/cm2 in assay [1] (setting [4]) and in assay [2] (setting [5]) was 50 to 100% each time. In addition, the “YFM (Biological Results, rating)” value in assay [3] is listed as “A (80-100)”.
As for `O=C(Nc1ccc(-n2cncn2)cc1)c1cc(NC(=O)[C@H]2[C@H](c3cc(Cl)cc(Cl)c3)C2(Cl)Cl)ccc1Cl` (relative stereo) [PF57, trans-N-(4-(1H-1,2,4-Triazol-1-yl)phenyl)-2-chloro-5-(2,2-dichloro-3-(3,5-dichlorophenyl)cyclopropane-1-carboxamido)benzamide], the pest or weed control at 50 µg/cm2 in assay [1] (setting [6]) and in assay [2] (setting [7]) was 50 to 100% in each case. Besides, the YFM rating entry in assay [3] is on record as “A (80-100)”.
For `N#Cc1cc(Cl)cc(C2C(C(=O)Nc3ccc(Cl)c(C(=O)Nc4ccc(F)cc4)c3)C2(Cl)Cl)c1` (stereo not drawn) [PF155, 2-Chloro-5-(trans)-2,2-dichloro-3-(3-chloro-5-cyanophenyl)cyclopropane-1-carboxamido)-N-(4-fluorophenyl)benzamide], the pest or weed control at 50 µg/cm2 in assay [1] (setting [6]) and in assay [2] (setting [7]) was 50 to 100% each time. Further, the YFM rating entry in assay [3] is reported as “B (More than 0-Less than 80)”.

These data come from patent US10219516B2, “Molecules having pesticidal utility, and intermediates, compositions, and processes, related thereto” (priority 2015, dated 2019).
